How the values were obtained:
Format in all cases: cell-based, human
[1] = tested on: FU97; experiment: Cell viability drug screen, 12-point dose-response AUC; design: Average Area Under the Viability Curve (AUC), AUC norm value: scale not given here; details: FU97 cells, 72 hours; for area under the viability curve (AUC), normalized: 12-point dose-response
How it was run: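 Trapezoidal AUC of a 12-point, DMSO-normalized dose-response curve. Luminescent viability was measured after 72 h of exposure at 37° C to half-log serial dilutions (0.5% DMSO control), dosed 24 h after plating FU97 cells at 5×10^3 per well.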

[2] = tested on: SEM-type gastric cancer cell line; experiment: Cell viability drug screen, AUC summary over SEM-type lines
Experimental: An FDA-approved small-molecule pharmacological compound (#L1300) and an anticancer compound for research (#L2000) were purchased from Selecckchem and a 10 mM solution was prepared in DMSO. A total of 1,345 compounds were tested the cell viability of the seven EMT gastric cancer cell lines.
Cells cultured for cell-based drug assay were inoculated into a 96-well white optical plate (Corning) at 5×10^3 cells per well. After 24 hours after inoculation, a 2.5 MJT (primary screen) or a half-log 12-serial diluent (secondary screen) of the pharmacological compound contained in DMSO is added to the cells with a robot using a BioMek FXp liquid processor (Beckman) to add to the cells at 50 mM. The final drug concentration in the 5 ns range and the DMSO specification control (0.5%) were calculated. The cells were then further incubated at 37° C. in a 5% CO2 incubator for 72 hours prior to measuring cell viability using the extra-GLO assay kit (Promega). The luminescent properties were measured after 15 min incubation at room temperature using a plate stacker equipped with a plate stacker. The normalized viability for the DMSO-based control was measured to generate a cell line-specific 12-point dose-response curve for each pharmacological compound, and then the area under the curve (AUC) was calculated using a trapezoidal method.

[3] = tested on: non-SEM-type gastric cancer cell line; experiment: Cell viability drug screen, AUC summary over non-SEM-type lines; details: in the non-SEM-type gastric cancer cell line
[4] = tested on: MKN28; experiment: Cell viability drug screen, 12-point dose-response AUC; details: MKN28 cells, 72 hours; for area under the viability curve (AUC), normalized: 12-point dose-response
How it was run: (§1)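 Each cell line receives a twelve-point half-log titration of drug beginning 24 h after plating 5×10^3 cells per well. Following 72 h culture at 37 °C, luminescent signal is recorded and expressed versus vehicle. AUC is derived by the trapezoidal method.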

[5] = tested on: NCC59; experiment: as above; details: NCC59 cells, 72 hours; for area under the viability curve (AUC), normalized: 12-point dose-response
How it was run: as §1

[6] = tested on: YCC3; experiment: as above; details: YCC3 cells, 72 hours; for area under the viability curve (AUC), normalized: 12-point dose-response
How it was run: as §1

[7] = tested on: NCC24; experiment: as above; details: NCC24 cells, 72 hours; for area under the viability curve (AUC), normalized: 12-point dose-response
How it was run: as §1

[8] = tested on: SNU484; experiment: as above; details: 72 hours; for area under the viability curve (AUC), normalized: SNU484 cells, 12-point dose-response
How it was run: as §1

[9] = tested on: Hs746T; experiment: as above; details: 72 hours; for area under the viability curve (AUC), normalized: Hs746T cells, 12-point dose-response
How it was run: as §1

[10] = tested on: NCC19; experiment: as above; details: NCC19 cells, 72 hours; for area under the viability curve (AUC), normalized: 12-point dose-response
How it was run: as §1

[11] = tested on: YCC11; experiment: as above; details: 72 hours; for area under the viability curve (AUC), normalized: YCC11 cells, 12-point dose-response
How it was run: as §1

[12] = tested on: SNU1; experiment: as above; details: SNU1 cells, 72 hours; for area under the viability curve (AUC), normalized: 12-point dose-response
How it was run: as §1

[13] = tested on: AGS; experiment: as above; details: 72 hours; for area under the viability curve (AUC), normalized: AGS cells, 12-point dose-response
How it was run: (§2)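 Luminescent viability readings, taken 15 min after reagent addition at room temperature, were normalized to the 0.5% DMSO control to build 12-point dose-response curves. Trapezoidal integration gave the AUC. Cells had been plated at 5×10^3 per well and then exposed to half-log dilutions for 72 h.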

[14] = tested on: SNU216; experiment: as above; details: 72 hours; for area under the viability curve (AUC), normalized: SNU216 cells, 12-point dose-response
How it was run: as §2

[15] = tested on: NCI_N87; experiment: as above; details: NCI_N87 cells, 72 hours; for area under the viability curve (AUC), normalized: 12-point dose-response
How it was run: as §1

[16] = tested on: OCUM1; experiment: as above; details: OCUM1 cells, 72 hours; for area under the viability curve (AUC), normalized: 12-point dose-response
How it was run: as §1

[17] = tested on: SNU601; experiment: as above; details: SNU601 cells, 72 hours; for area under the viability curve (AUC), normalized: 12-point dose-response
How it was run: as §1

[18] = tested on: SNU638; experiment: as above; details: SNU638 cells, 72 hours; for area under the viability curve (AUC), normalized: 12-point dose-response
How it was run: as §1

[19] = tested on: MKN45; experiment: as above; details: 72 hours; for area under the viability curve (AUC), normalized: MKN45 cells, 12-point dose-response
How it was run: as §2

[20] = tested on: SNU620; experiment: as above; details: SNU620 cells, 72 hours; for area under the viability curve (AUC), normalized: 12-point dose-response
How it was run: as §1

[21] = tested on: SNU719; experiment: as above; details: SNU719 cells, 72 hours; for area under the viability curve (AUC), normalized: 12-point dose-response
How it was run: as §2

[22] = tested on: SNU1967; experiment: as above; details: SNU1967 cells, 72 hours; for area under the viability curve (AUC), normalized: 12-point dose-response
How it was run: as §1

[23] = tested on: SNU16; experiment: as above; details: SNU16 cells, 72 hours; for area under the viability curve (AUC), normalized: 12-point dose-response
How it was run: as §1

[24] = tested on: MKN74; experiment: as above; details: MKN74 cells, 72 hours; for area under the viability curve (AUC), normalized: 12-point dose-response
How it was run: as §2

[25] = tested on: NCC20; experiment: as above; details: NCC20 cells, 72 hours; for area under the viability curve (AUC), normalized: 12-point dose-response
How it was run: as §1

[26] = tested on: KATO3; experiment: as above; details: KATO3 cells, 72 hours; for area under the viability curve (AUC), normalized: 12-point dose-response
How it was run: as §1

[27] = tested on: SK4; experiment: as above; details: 72 hours; for area under the viability curve (AUC), normalized: SK4 cells, 12-point dose-response
How it was run: as §1

[28] = tested on: YCC2; experiment: as above; details: YCC2 cells, 72 hours; for area under the viability curve (AUC), normalized: 12-point dose-response
How it was run: as §1

[29] = tested on: SNU1750; experiment: as above; details: 72 hours; for area under the viability curve (AUC), normalized: SNU1750 cells, 12-point dose-response
How it was run: as §1

[30] = tested on: SNU668; experiment: as above; details: 72 hours; for area under the viability curve (AUC), normalized: SNU668 cells, 12-point dose-response
How it was run: as §1

[31] = tested on: MKN1; experiment: as above; details: MKN1 cells, 72 hours; for area under the viability curve (AUC), normalized: 12-point dose-response
How it was run: as §1

Nc1ccc(-c2ccc3ncc4ccc(=O)n(-c5cccc(C(F)(F)F)c5)c4c3c2)cn1 [Torin, Torin 2]
area under the viability curve (AUC), normalized [1]: −1.526 | normalized viability AUC [2]: negative | AUC value [3]: high | area under the viability curve (AUC), normalized [4]: 0.8861 | area under the viability curve (AUC), normalized [5]: 1.584 | area under the viability curve (AUC), normalized [6]: 1.399 | area under the viability curve (AUC), normalized [7]: 0 | area under the viability curve (AUC), normalized [8]: −0.505 | area under the viability curve (AUC), normalized [9]: −0.7581 | area under the viability curve (AUC), normalized [10]: 1.614 | area under the viability curve (AUC), normalized [11]: −2.299 | area under the viability curve (AUC), normalized [12]: 1.392 | area under the viability curve (AUC), normalized [13]: −1.701 | area under the viability curve (AUC), normalized [14]: −0.4964 | area under the viability curve (AUC), normalized [15]: 0.3078 | area under the viability curve (AUC), normalized [16]: −0.1127 | area under the viability curve (AUC), normalized [17]: 0.4104 | area under the viability curve (AUC), normalized [18]: 0.3739 | area under the viability curve (AUC), normalized [19]: 0.6704 | area under the viability curve (AUC), normalized [20]: 0.3965 | area under the viability curve (AUC), normalized [21]: 3.841 | area under the viability curve (AUC), normalized [22]: −0.557 | area under the viability curve (AUC), normalized [23]: 0.9803 | area under the viability curve (AUC), normalized [24]: −0.1868 | area under the viability curve (AUC), normalized [25]: −1.598 | area under the viability curve (AUC), normalized [26]: 2.66 | area under the viability curve (AUC), normalized [27]: −2.722 | area under the viability curve (AUC), normalized [28]: −0.06527 | area under the viability curve (AUC), normalized [29]: −0.787 | area under the viability curve (AUC), normalized [30]: 0.4391 | area under the viability curve (AUC), normalized [31]: −1.574

Cn1c(=O)n(-c2ccc(C(C)(C)C#N)cc2)c2c3cc(-c4cnc5ccccc5c4)ccc3ncc21 [BEZ235 (NVP-BEZ235), BEZ235]
Average Area Under the Viability Curve (AUC), AUC norm value [1]: −2.382 | normalized viability AUC [2]: negative | AUC value [3]: high | Average Area Under the Viability Curve (AUC), AUC norm value [4]: 2.007 | Average Area Under the Viability Curve (AUC), AUC norm value [5]: 2.997 | Average Area Under the Viability Curve (AUC), AUC norm value [6]: 0.9008 | Average Area Under the Viability Curve (AUC), AUC norm value [7]: 0.08486 | Average Area Under the Viability Curve (AUC), AUC norm value ([8]; SNU484 cells (SEM subtype)): 0 | Average Area Under the Viability Curve (AUC), AUC norm value ([9]; Hs746T cells (SEM subtype)): −0.9926 | Average Area Under the Viability Curve (AUC), AUC norm value [10]: 0.9022 | Average Area Under the Viability Curve (AUC), AUC norm value ([11]; YCC11 cells (SEM subtype)): −2.698 | Average Area Under the Viability Curve (AUC), AUC norm value [12]: −1.128 | Average Area Under the Viability Curve (AUC), AUC norm value ([13]; AGS cells (non-SEM subtype)): −1.768 | Average Area Under the Viability Curve (AUC), AUC norm value ([14]; SNU216 cells (non-SEM subtype)): −0.6351 | Average Area Under the Viability Curve (AUC), AUC norm value [15]: 0.7505 | Average Area Under the Viability Curve (AUC), AUC norm value [16]: −0.3719 | Average Area Under the Viability Curve (AUC), AUC norm value [17]: 2.66 | Average Area Under the Viability Curve (AUC), AUC norm value [18]: 0.8979 | Average Area Under the Viability Curve (AUC), AUC norm value ([19]; MKN45 cells (non-SEM subtype)): 1.887 | Average Area Under the Viability Curve (AUC), AUC norm value [20]: −0.6893 | Average Area Under the Viability Curve (AUC), AUC norm value [21]: 5.119 | Average Area Under the Viability Curve (AUC), AUC norm value [22]: −0.17 | Average Area Under the Viability Curve (AUC), AUC norm value [23]: −0.9859 | Average Area Under the Viability Curve (AUC), AUC norm value [24]: 0.02041 | Average Area Under the Viability Curve (AUC), AUC norm value [25]: −1.542 | Average Area Under the Viability Curve (AUC), AUC norm value [26]: 2.717 | Average Area Under the Viability Curve (AUC), AUC norm value ([27]; SK4 cells (SEM subtype)): −3.142 | Average Area Under the Viability Curve (AUC), AUC norm value [28]: 0.6403 | Average Area Under the Viability Curve (AUC), AUC norm value ([29]; SNU1750 cells (SEM subtype)): −1.129 | Average Area Under the Viability Curve (AUC), AUC norm value ([30]; SNU668 cells (SEM subtype)): 1.258 | Average Area Under the Viability Curve (AUC), AUC norm value [31]: −0.845

Cc1cnc(NC(=O)Nc2cc(Br)c(C)cc2OC[C@@H]2CNCCO2)cn1 [LY2603618]
area under the viability curve (AUC), normalized [1]: 0.7111 | normalized viability AUC [2]: negative | AUC value [3]: high | area under the viability curve (AUC), normalized [4]: −0.1902 | area under the viability curve (AUC), normalized [5]: 0.9326 | area under the viability curve (AUC), normalized [6]: 0.2305 | area under the viability curve (AUC), normalized [7]: −1.445 | area under the viability curve (AUC), normalized [8]: 0.3141 | area under the viability curve (AUC), normalized [9]: −0.107 | area under the viability curve (AUC), normalized [10]: 1.2209 | area under the viability curve (AUC), normalized [11]: −2.027 | area under the viability curve (AUC), normalized [12]: −0.3399 | area under the viability curve (AUC), normalized [13]: −0.3593 | area under the viability curve (AUC), normalized [14]: 0.2462 | area under the viability curve (AUC), normalized [15]: 0.8771 | area under the viability curve (AUC), normalized [16]: −0.6831 | area under the viability curve (AUC), normalized [17]: 0.2367 | area under the viability curve (AUC), normalized [18]: −0.05048 | area under the viability curve (AUC), normalized [19]: −0.9472 | area under the viability curve (AUC), normalized [20]: 0 | area under the viability curve (AUC), normalized [21]: 2.404 | area under the viability curve (AUC), normalized [22]: −0.9616 | area under the viability curve (AUC), normalized [23]: 1.467 | area under the viability curve (AUC), normalized [24]: −0.9084 | area under the viability curve (AUC), normalized [25]: 0.01673 | area under the viability curve (AUC), normalized [26]: 1.256 | area under the viability curve (AUC), normalized [27]: −1.698 | area under the viability curve (AUC), normalized [28]: 0.04045 | area under the viability curve (AUC), normalized [29]: −0.4819 | area under the viability curve (AUC), normalized [30]: 0.1713 | area under the viability curve (AUC), normalized [31]: −1.023
